For 89 molecules, melting point results are on record in a melting point compilation (Tetko et al.; mined from patent text by program, amines drawn as free bases though some values may be those of a salt).

SMILES strings stand for the structures.

In general, melting point refers to the temperature, or range, at which the solid turns liquid. Consider `O=C1c2ccccc2C(=O)N1CC(=O)N1c2ccccc2N(CCc2ccccc2)C(=O)[C@H]2CCC[C@H]21` (relative stereo), for which the melting point lay in the range of 178 to 179 °C.
In the case of `c1ccc2sc(SSN3CCOCC3)nc2c1`, the melting point was in the range of 132 to 136 °C.
In turn, `O=C1CCc2c(Cl)sc(-c3ccccc3F)c21` returned a melting point of 133 to 135 °C.
`O=C(O)c1cc(=O)c(Cl)c(-c2ccccc2)o1`: the melting point is 216 to 218 °C.
On to `CCOC(=O)c1ccc(CCCCN2C(=O)c3ccccc3C2=O)cc1`, for which the melting point was 85 to 86 °C.
`CCCn1cc(C2(c3cccc(-c4cccnc4F)c3)N=C(N)N(C)C2=O)cc1C(=O)CC` (centres undefined) gave a melting point of 118 °C.
`NS(=O)(=O)c1ccc(-c2cccn2-c2ccc(Cl)cc2Cl)cc1`: the melting point was in the range of 147 to 149 °C.
In turn, `C#CC1(OC(C)=O)CCC2C3CC(=C)C4=CC(=O)CCC4(C)C3CCC21C` (centres undefined) displayed a melting point of 158 to 160 °C.
The figure for `COc1ccc(-c2cccc(C#N)n2)cc1` is 86.3 to 86.6 °C; for `Cc1cccc(NC(=O)NC2N=C(C3CCCCC3)c3cccc(C)c3N(C)C2=O)c1` (centres undefined) it is 196 to 198 °C; for `COc1cc(C(=O)NCC(=O)O)ccc1NS(=O)(=O)c1sc2ccc(Cl)cc2c1C` it is 282 to 285 °C.
Take `C=CCc1c(OCC(O)CSCCO)ccc(C(C)=O)c1O` (centres undefined): the melting point was 54 to 56 °C.
Molecule `COc1ccc(-c2cc(=O)n(CC3CC3)nc2-c2ccc(OC)cc2)cc1` gave a melting point of 129 °C.
Consider `COc1ccc(CNS(=O)(=O)Cc2ccc3[nH]cc(CCN(C)C)c3c2)cc1`, for which the melting point was 200 to 201 °C.
Consider `CCCn1cc2c(C3C(=O)Nc4ccc(C#N)cc43)nc(NCCc3ccccn3)nc2n1` (centres undefined), for which the melting point is > 300 °C.
In the case of `CCCc1nc(C)nc(Cl)c1Cc1ccc([N+](=O)[O-])cc1`, the melting point was found to be 65 °C.
Regarding `CC(C)(C)C(=O)Nc1c(F)cc(F)cc1Oc1ccc(C2CC(=O)NC(=O)C2)cc1`, the melting point worked out at 172 °C.
Turning to `CC(=Cc1ccc(F)cc1)COc1cc(C)c(NC=O)c(C)c1C`, the melting point is 164 to 165 °C.
As for `CON=C(c1ccon1)c1ccccc1COc1cc(C)ccc1C`, the melting point was in the range of 104 to 108 °C.
In turn, `Cc1cc(-c2nc3cc(Cl)cc(Cl)c3c(=O)[nH]2)cc(C)c1OCCN1CCCC1` came in with a melting point of 209 to 210 °C.
For `CCOC(=O)c1cc(C)n(-c2cccc(I)c2)c1-c1ccccc1`, the melting point fell in the range of 143 to 144 °C.
For `CCOC(=O)c1cnc2c([N+](=O)[O-])cccc2c1Cl`, the melting point fell in the range of 253 to 254 °C.
In turn, `COc1ccc(Nc2ccc3c(n2)CC(C)(C)CC3=O)cc1` came in with a melting point of 149 to 150 °C.
The figure for `CSc1cnc2c(c1)CCC(c1ccc(Cl)c(Cl)c1)O2` (centres undefined) is 109 to 111 °C.
Molecule `c1ccc(-c2nc3n(n2)Cc2ccccc2-3)cc1` showed a melting point of 156 to 158 °C.
As to `Cc1c(-c2cccnc2)n(CCOc2ccc(C(=O)O)cc2)c2ccccc12`, the melting point lay within 190 to 193 °C.
The figure for `CC(C)(C)OC(=O)N1CCC(O)(CSC2=CC(=O)C(=O)c3ccccc32)CC1` is 156 to 157 °C.
In turn, `COc1cccc(C2CCC(=O)N2)c1` (centres undefined) had a melting point of 84 to 85 °C.
Consider `C=CCN1CCN(c2cc3c(cc2Cl)c(=O)c(C(=O)O)cn3CC)CC1`, for which the melting point came to 212 °C.
The molecule `CC(=O)C(C)=Cc1cc(O)c(O)c([N+](=O)[O-])c1` displayed a melting point of 139 to 141 °C.
The molecule `CCCN(CCC)S(=O)(=O)c1cccc(C(=O)Nc2ccc(Br)cc2C)c1` yielded a melting point of 135 to 136 °C.
For `CCn1c(=O)ccc2cnc(Nc3ccc(N4CCOCC4)cc3)nc21`, the melting point lay within 227 to 228 °C.
Under `COC(=O)c1cc(C(=O)N2CCSCC2)c2cc(Cc3ccc(F)cc3)cnc2c1O` stands 184 to 185 °C; under `CCOC(=O)c1ccc(/C=C/C2CCCN2C(=O)OC(C)(C)C)cc1` (centres undefined), 68 to 70 °C.
Under `C=C(Br)CN1Cc2cccc3[nH]c(=O)n(c23)CC1C` (centres undefined) stands 150 °C; under `CCCCOCCOc1ccc(-c2ccc3c(c2)C=C(C(=O)OC)CCN3c2ccc(S(=O)(=O)N(C)C)cc2)cc1`, 150 to 153 °C.
The molecule `CCOC(C)=C(C#N)C(=O)Nc1ccccc1C` gave a melting point of 179 to 181 °C.
For the molecule `CN1C(=O)COc2cccc3nc4c(c1c23)CCCC4`, the melting point lay in the range of 176 to 178 °C.
For the molecule `Nc1ccn2nc(-c3cccc(F)c3)nc2c1`, the melting point fell in the range of 200 to 203 °C.
On to `CC(C)Oc1ccc(C=C(C=O)C(C=O)=Cc2ccc(OC(C)C)cc2)cc1`, for which the melting point lay within 200 to 202 °C.
In turn, `CS(=O)c1ccccc1S(=O)(=O)c1ccc(NC(=O)C(C)(O)C(F)(F)F)c(Cl)c1` (centres undefined) gave a melting point of 118 to 120 °C.
Consider `CC1C(=O)NC2=Nc3ccc(OCCCCC(=O)N(CCO)C4CCCCC4)c(Cl)c3CN21` (centres undefined), for which the melting point lay in the range of 206 to 208 °C.
Under `Cc1c(C#N)c(SC(F)(F)F)cn1-c1c(Cl)cc(C(F)(F)F)cc1Cl` stands 98.5 °C; under `COc1ccccc1NS(=O)(=O)c1ccc(NC2=C(Cl)C(=O)c3ccccc3C2=O)cc1`, 198 to 201 °C; under `CC(O)(CC(=O)O)c1ccc(-c2ccc(Br)cc2Br)cc1` (centres undefined), 118 to 120 °C.
For `CN1CCC(Oc2cc3c(cc2F)c(=O)c(C(=O)O)cn3C2CC2)CC1`, the melting point is 265 to 269 °C.
In turn, `CNC(=S)C1(c2ccccn2)OCCCS1` (centres undefined) showed a melting point of 157 °C.
For `CCCCc1oc2ccccc2c1-c1ncc(-c2ccc3cc(OCc4nnn[nH]4)ccc3c2)o1`, the melting point fell in the range of 238 to 240 °C.
`CCC1(O)CC(=O)OCc2c1ccnc2OC` (centres undefined): the melting point lay within 97 to 98 °C.
`Cc1cc(N)c2cc(NC(=O)C=Cc3ccccc3C(F)(F)F)ccc2n1` had a melting point of 272 to 273 °C.
Molecule `CCNC(=O)/C=C1\CCc2ccc(F)cc21` displayed a melting point of 125 to 127 °C.
The figure for `CCCCCCCCCCCCc1nnn(C(CCCC)C(=O)Nc2c(OC)cc(OC)cc2OC)n1` (centres undefined) is 152 to 154 °C; for `O=C(CN1CCN(C(c2ccccc2)c2ccccc2)CC1)Nc1ccc2ncnn2n1` it is 203 to 204 °C.
`O=C(O)c1ccc(-c2cnc3c(c2)N(Cc2ccccc2)CCN3)cc1`: the melting point was > 300 °C.
The figure for `CCOC(=O)C1=Cc2cc(C(F)(F)F)ccc2NC1C(F)(F)F` (centres undefined) is 138 to 139 °C; for `CCCCc1ncc(C=O)n1Cc1ccc(C(=O)OC)cc1` it is 62 to 64 °C; for `O=C(O)c1cnc(CO)s1` it is 193 °C.
`CCc1nc2c(cnn2CC)c(NC2CCOCC2)c1CNC(=O)c1cccc(C(=O)NCc2ccc(Cl)c(-c3cccc(CN4CCNCC4)c3)c2)c1` had a melting point of 127 to 130 °C.
Under `Cc1ccc(S(=O)(=O)Oc2ccc(C(=O)c3c(-c4ccccc4)cc4ccccn34)cc2)cc1` stands 177 to 178 °C; under `O=C1c2ccccc2C(=O)c2cc(S(=O)(=O)O)ccc21`, 208 to 211 °C; under `O=C1c2ccccc2C(=O)N1OCC/C=C/c1cccs1`, 69 to 71 °C.
The molecule `C=CCCC(O)=C(C#N)C(=O)Nc1ccc(Cl)cc1` returned a melting point of 138 °C.
`Oc1cccc(C=Cc2nc(-c3ccccc3)c(-c3ccccc3)o2)c1`: the melting point was in the range of 201 to 203 °C.
Regarding `CC(CCCCCc1nc(-c2ccc(Cl)cc2)c(-c2ccc(Cl)cc2)o1)c1nnn[nH]1` (racemic), the melting point came out at 144 °C.
`Cc1cccc(C)c1C#CCOCCn1cnc2c(N)nc3ccccc3c21` showed a melting point of 200 to 201 °C.
As for `O=C(Nc1ccc(CCN2CCCCC2)cc1)C1=Cc2cc(-c3ccccc3)ccc2CC1`, the melting point was 157 to 159 °C.
The figure for `O=C(O)c1cccc(-c2ccc3c(c2)N(c2cc(Cl)cc(Cl)c2)CC3)c1` is 210 to 211 °C; for `Cc1nnc(COc2ccc([N+](=O)[O-])cc2)o1` it is 105 to 106 °C.
Consider `CC(C)c1cccc(C(C)C)c1NC(=O)CNC(C)c1ccccn1` (centres undefined), for which the melting point lay in the range of 99 to 101 °C.
For `C/C=C(/COC(=O)CNC(=O)C(F)(F)F)c1ccccc1`, the melting point fell in the range of 49 to 50 °C.
The molecule `CCCn1c(COCC)nc2c(N)nc3ccc(OCC4CCCO4)cc3c21` (centres undefined) gave a melting point of 178 to 179 °C.
`COC(=O)c1cc(C)c(-c2cccc(O)c2C)c(C)c1` had a melting point of 149 °C.
Take `CC1Cc2ccc(Br)cc2C(c2ccc(N)cc2)=NN1C1CC1` (centres undefined): the melting point fell in the range of 113 to 116 °C.
Under `CC#CCOc1ccc(S(=O)(=O)N(C)c2c(C(=O)OCC)cnc3onc(C)c23)cc1` stands 85 to 90 °C; under `O=[N+]([O-])c1ccc(OCC(O)CCCl)cc1` (centres undefined), 60 to 63 °C.
The molecule `COC(=O)C1=C(C)NN=C(c2cccc(Cl)c2)C1c1ccccc1` (centres undefined) showed a melting point of 176 °C.
The figure for `COc1ccc(C(C)CNC(=O)C(N)=O)cc1OC1CCCC1` (centres undefined) is 175 to 176 °C.
Turning to `CCCCn1c(=O)c2nn(S(=O)(=O)Cc3ccccc3)cc2n(CCCC)c1=O`, the melting point was 90 to 93 °C.
Under `O=C(Nc1ccc(C(F)(F)F)cc1)N1CC2CCc3cc(Cl)ccc3C2=N1` (centres undefined) stands 196 to 199 °C; under `COc1ccc(-c2c(N)oc3c(C(C)(C)C)cc(C(C)(C)C)cc23)cc1OC`, 172 to 174 °C; under `NCC1Cc2c(F)c(F)cc(-c3ccccc3)c2O1` (centres undefined), > 240 °C.
As for `CSc1nc(Cl)cc2cnc(C)n12`, the melting point lay in the range of 153 to 155 °C.
The figure for `CCOC(=O)c1oc2ccc(Cc3ccc(O)cc3)c(O)c2c1C` is 182 to 184 °C; for `CCCn1c(=O)c2[nH]c(-c3ccc(C#N)cc3)nc2n(C)c1=O` it is 314 to 318 °C.
In the case of `CNCC(=O)N1CC(c2ccc(Cl)cc2)Sc2ccccc21` (centres undefined), the melting point was 139 to 140 °C.
As to `CSCn1c(Br)c(Br)c(C#N)c1-c1ccc(C(F)(F)F)cc1`, the melting point was in the range of 140 to 145 °C.
Molecule `COc1cc(N)c(Cl)cc1C(=O)NC1CCN(CCn2c(=O)[nH]c3ccccc3c2=O)CC1OC` (centres undefined) displayed a melting point of 271 °C.
Consider `COc1cccc(CN2CCc3cc(O)c(OC)cc3C2C)c1` (centres undefined), for which the melting point is 97 to 99 °C.
As to `Cn1cc(C(=O)O)c2cccc(F)c21`, the melting point was 225 to 227 °C.
